One assay deals with Ebolavirus. Nature of the assay: Antiviral activity against VSV pseudotyped Ebolavirus expressing M-GFP infected in African green monkey Vero E6 cells assessed as inhibition of viral infection pre-incubated for 2 hrs before infection and measured after 8 to 12 hrs by fluorescence microscopic method. Conditions: Orthoebolavirus, Vero C1008. Type of assay: functional, Vero C1008.
With `O=C(CC12CC3CC(CC(O)(C3)C1)C2)NCC(=O)N1CCN(Cc2ccccc2OCc2ccc(Br)cc2)CC1`, the IC50 amounted to 500 nM.

On to `O=C(CC12CC3CC(CC(C3)C1)C2)NCC(=O)N1CCN(Cc2c(F)ccc(Cl)c2F)CC1`, for which the IC50 amounted to 1350 nM.

In the case of `COC(=O)c1ccc(COc2ccccc2CN2CCN(C(=O)CNC(=O)CC34CC5CC(C3)CC(C(=O)O)(C5)C4)CC2)cc1`, the IC50 was over 2000 nM.

For `COC(=O)c1ccc(COc2ccc(F)cc2CN2CCN(C(=O)CNC(=O)CC3CCC(F)(F)CC3)CC2)cc1`, the IC50 turned out to be 18 nM.

Turning to `O=C(CC1CCC(F)(F)CC1)NCC(=O)N1CCN(Cc2cc(Br)ccc2O)CC1`, the IC50 was 790 nM.

On to `COC(=O)c1ccc(COc2ccc(Cl)cc2CN2CCN(C(=O)CNC(=O)C(F)(F)C(F)F)CC2)cc1`, for which the IC50 was found to be 160 nM.

Regarding `COC(=O)c1ccc(COc2ccc(F)cc2CN2CCN(C(=O)CNC(=O)CC34CC5CC(CC(C5)C3)C4)CC2)cc1`, the IC50 was 1.4 nM.

Consider `Nc1ccc(Cl)cc1CN1CCN(C(=O)CNC(=O)C2CC23CCCC3)CC1` (racemic), for which the IC50 is 240 nM.

On to `N#Cc1ccc(Br)cc1CN1CCN(C(=O)CNC(=O)CC23CC4CC(CC(C4)C2)C3)CC1`, for which the IC50 came to 310 nM.

`O=C(CC12CC3CC(CC(C3)C1)C2)NCC(=O)N1CCN(Cc2cc(Cl)ccc2O)CC1`: the IC50 is 200 nM.

On to `O=C(CC12CC3CC(CC(C3)C1)C2)NCC(=O)N1CCN(Cc2cc(Br)ccc2Cl)CC1`, for which the IC50 was determined as 2200 nM.

`COC(=O)c1cccc(-c2ccc(Cl)cc2CN2CCN(C(=O)CNC(=O)CC34CC5CC(CC(C5)C3)C4)CC2)c1`: the IC50 was determined as 250 nM.

As for `O=C(CC12CC3CC(CC(Br)(C3)C1)C2)NCC(=O)N1CCN(Cc2ccccc2OCc2ccc(Br)cc2)CC1`, the IC50 amounted to 600 nM.

Turning to `Nc1ccc(Br)cc1CN1CCN(C(=O)CNC(=O)CC2CCC(F)(F)CC2)CC1`, the IC50 turned out to be 1740 nM.

On to `O=C(CC12CC3CC(CC(C3)C1)C2)NCC(=O)N1CCN(Cc2cc(F)c(F)cc2Cl)CC1`, for which the IC50 is 1450 nM.

In the case of `COC(=O)c1ccc(COc2ccccc2CN2CCN(C(=O)CNC(=O)CC3CC(F)(F)C3)CC2)cc1`, the IC50 came to 300 nM.

As for `O=C(CC12CC3CC(CC(C3)C1)C2)NCC(=O)N1CCN(Cc2cc(Cl)cc(F)c2F)CC1`, the IC50 amounted to 670 nM.

Take `O=C(CC1CCC(F)(F)CC1)NCC(=O)N1CCN(Cc2cc(Cl)ccc2NC(=O)C2CC2)CC1`: the IC50 is 3500 nM.

With `COC(=O)c1ccc(CCc2ccccc2CN2CCN(C(=O)CNC(=O)CC34CC5CC(CC(C5)C3)C4)CC2)cc1`, the IC50 was determined as 20 nM.

As to `O=C(CC12CC3CC(CC(C3)C1)C2)NCC(=O)N1CCN(Cc2cc(Br)ccc2F)CC1`, the IC50 stood at 1200 nM.

For `COC(=O)c1ccc(COc2ccc(Br)cc2CN2CCN(C(=O)CNC(=O)CC34CC5CC(CC(C5)C3)C4)CC2)cc1`, the IC50 was 9 nM.

For the molecule `COC(=O)c1ccc(COc2ccc(Cl)cc2CN2CCN(C(=O)CNC(=O)CC34CC5CC(CC(C5)C3)C4)CC2)cc1`, the half-inhibitory concentration (IC50) turned out to be 1.1 nM.

For `O=C(CC12CC3CC(CC(C3)C1)C2)NCC(=O)N1CCN(Cc2ccccc2OCc2ccc(Br)cc2)CC1`, the IC50 was determined as 220 nM.

Turning to `O=C(CC1CCC(F)(F)CC1)NCC(=O)N1CCN(Cc2cc(Cl)cc(F)c2O)CC1`, the IC50 amounted to 2800 nM.

For `O=C(CC12CC3CC(C1)CC(c1ccc(O)c([N+](=O)[O-])c1)(C3)C2)NCC(=O)N1CCN(Cc2ccccc2OCc2ccc(Br)cc2)CC1`, the IC50 came to 600 nM.

Turning to `O=C(CC12CC3CC(C1)CC(c1ccccc1)(C3)C2)NCC(=O)N1CCN(Cc2ccccc2OCc2ccc(Br)cc2)CC1`, the IC50 was determined as 700 nM.

`Nc1ccc(Cl)cc1CN1CCN(C(=O)CNC(=O)C2CC23CCC(F)(F)CC3)CC1` (racemic): the IC50 came to 100 nM.

Take `CC(=O)Nc1ccc(Cl)cc1CN1CCN(C(=O)CNC(=O)CC23CC4CC(CC(C4)C2)C3)CC1`: the IC50 came out at 950 nM.

For `O=C(CC12CC3CC(CC(C3)C1)C2)NCC(=O)N1CCN(Cc2cc(Cl)c(F)cc2F)CC1`, the IC50 amounted to 370 nM.

Turning to `NC(=O)c1ccc(Cl)cc1CN1CCN(C(=O)CNC(=O)CC23CC4CC(CC(C4)C2)C3)CC1`, the IC50 amounted to 1900 nM.

For `O=C(NCC(=O)N1CCN(Cc2cc(Cl)ccc2O)CC1)C1CC12CCC(F)(F)CC2` (racemic), the IC50 turned out to be 180 nM.

Regarding `O=C(CC1CCC(F)(F)CC1)NCC(=O)N1CCN(Cc2cc(Cl)ccc2NS(=O)(=O)C2CC2)CC1`, the IC50 is 2200 nM.

With `COC(=O)c1ccc(COc2ccc(C#N)cc2CN2CCN(C(=O)CNC(=O)CC34CC5CC(CC(C5)C3)C4)CC2)cc1`, the IC50 was 50 nM.

Take `O=C(CC12CC3CC(CC(C3)C1)C2)NCC(=O)N1CCN(Cc2cc(Cl)cc(Cl)c2Cl)CC1`: the IC50 is 430 nM.

As to `O=C(CC1CCC(F)(F)CC1)NCC(=O)N1CCN(Cc2cc(Cl)ccc2O)CC1`, the IC50 turned out to be 470 nM.

As to `COC(=O)c1ccc(COc2ccc(OC)cc2CN2CCN(C(=O)CNC(=O)CC34CC5CC(CC(C5)C3)C4)CC2)cc1`, the IC50 was 1400 nM.

Consider `CC1(CC(=O)NCC(=O)N2CCN(Cc3ccccc3OCc3ccc(Br)cc3)CC2)CCCCC1`, for which the IC50 was 520 nM.

With `COC(=O)c1ccc(COc2ccc(Cl)cc2CN2CCN(C(=O)CNC(=O)CC3CCC(F)(F)CC3)CC2)cc1`, the IC50 worked out at 15 nM.

Turning to `O=C(CC12CC3CC(CC(C3)C1)C2)NCC(=O)N1CCN(Cc2cc(Cl)ccc2F)CC1`, the IC50 amounted to 360 nM.

With `NC(=O)c1ccc(COc2ccccc2CN2CCN(C(=O)CNC(=O)CC34CC5CC(CC(C5)C3)C4)CC2)cc1`, the IC50 was determined as 700 nM.

In the case of `COC(=O)c1ccc(COc2ccc(C)cc2CN2CCN(C(=O)CNC(=O)CC34CC5CC(CC(C5)C3)C4)CC2)cc1`, the IC50 turned out to be 12 nM.

With `CN(C)S(=O)(=O)c1ccc(COc2ccccc2CN2CCN(C(=O)CNC(=O)CC34CC5CC(CC(C5)C3)C4)CC2)cc1`, the IC50 worked out at 400 nM.

With `COC(=O)c1ccc(COc2ccccc2CN2CCN(C(=O)CNC(=O)CC3CCC(F)(F)CC3)CC2)cc1`, the IC50 was found to be 50 nM.

Take `Nc1ccc(Cl)cc1C(=O)N1CCN(C(=O)CNC(=O)C2CC23CCC(F)(F)CC3)CC1` (racemic): the IC50 was over 5000 nM.

In the case of `CCC1(CC)CC1C(=O)NCC(=O)N1CCN(Cc2cc(Cl)ccc2N)CC1` (racemic), the IC50 is 160 nM.

For `O=C(CC12CC3CC(CC(C3)C1)C2)NCC(=O)N1CCN(Cc2cc(Br)ccc2O)CC1`, the IC50 amounted to 500 nM.

Turning to `COC(=O)c1ccc(/C=C/c2ccccc2CN2CCN(C(=O)CNC(=O)CC34CC5CC(CC(C5)C3)C4)CC2)cc1`, the IC50 is 1500 nM.

On to `CNS(=O)(=O)c1ccc(COc2ccccc2CN2CCN(C(=O)CNC(=O)CC34CC5CC(CC(C5)C3)C4)CC2)cc1`, for which the IC50 amounted to 300 nM.

Take `O=C(CC12CC3CC(CC(C3)C1)C2)NCC(=O)N1CCN(Cc2cc(Cl)ccc2C(F)(F)F)CC1`: the concentration for half-maximal inhibition (IC50) is over 2000 nM.

Regarding `O=C(CC12CC3CC(CC(Cl)(C3)C1)C2)NCC(=O)N1CCN(Cc2ccccc2OCc2ccc(Br)cc2)CC1`, the concentration for half-maximal inhibition (IC50) was determined as 500 nM.

On to `Nc1ccc(C2CC2)cc1CN1CCN(C(=O)CNC(=O)C2CC23CCC(F)(F)CC3)CC1` (racemic), for which the IC50 is 4200 nM.

As for `O=C(CC1CCC(F)(F)CC1)NCC(=O)N1CCN(Cc2cc(Cl)cc(Cl)c2O)CC1`, the half-maximal inhibitory concentration (IC50) came out at 3600 nM.

With `Nc1ccc(Cl)cc1CN1CCN(C(=O)CNC(=O)CC23CC4CC(CC(C4)C2)C3)CC1`, the IC50 came out at 90 nM.

Still in this assay, the particulars now being: vero c1008.
As to `[2H]C([2H])(c1cc(Cl)ccc1N)N1CCN(C(=O)CNC(=O)C2CC23CCC(F)(F)CC3)CC1` (stereo in doubt; 3-19), the IC50 amounted to 180 nM.

As a reminder, the IC50 is the concentration that inhibits the measured activity by half.

For the origin of these results see ChEMBL document CHEMBL4190400, “Identification of Potent Ebola Virus Entry Inhibitors with Suitable Properties for in Vivo Studies” (J Med Chem, 2018).
